The target in assay [1] is T1, Mps1 (Pyricularia oryzae, UniProt G4N374). Description: biochemical. The assay is classed as binding, Magnaporthe oryzae.
For a further assay, the target named is Src. The conditions noted are these: read-out: affinity; cited from earlier work.
The target of a further assay is Itk. The conditions noted are these: read-out: affinity; cited from earlier work.
For assay [2], the system named is M. oryzae conidia. The assay is classed as cell-based, Magnaporthe oryzae.
The subject of assay [3] is M. oryzae. Also on record: species or system Magnaporthe oryzae. The conditions noted are these: in vivo.
Assay [4] concerns the target T2, Mpk1 (Fusarium oxysporum, UniProt X0BN28). In kind it is biochemical.
The subject of assay [5] is M. oryzae. In kind it is cell-based.
The target in a further assay is Pmk1 (Pyricularia oryzae, UniProt G4N0Z0). In kind it is binding, Magnaporthe oryzae.
The subject of assay [6] is M. oryzae. More on the design: species or system Magnaporthe oryzae. The conditions noted are these: in vivo. This is another data set of the same source.
Assay [7] relates to M. oryzae. The assay is classed as cell-based. This is another data set of the same source.
In assay [8] the test system is M. oryzae. The assay is classed as cell-based. The source holds these as a separate data set.
In assay [9] the target is T1, Mps1. The assay is classed as biochemical, Magnaporthe oryzae.
Assay [10] relates to M. oryzae conidia. In kind it is cell-based, Magnaporthe oryzae. The source holds these as a separate data set.
The target of assay [11] is T2, Mpk1. Kind of assay: biochemical. The assay is classed as binding.
For assay [12], the system named is M. oryzae conidia. The conditions noted are these: cited from earlier work.

“Also recorded” adds a separate entry of the source. Read-outs that look alike come from different tables or passages of the source.

T1 sequence (G4N374 whole entry, looked up): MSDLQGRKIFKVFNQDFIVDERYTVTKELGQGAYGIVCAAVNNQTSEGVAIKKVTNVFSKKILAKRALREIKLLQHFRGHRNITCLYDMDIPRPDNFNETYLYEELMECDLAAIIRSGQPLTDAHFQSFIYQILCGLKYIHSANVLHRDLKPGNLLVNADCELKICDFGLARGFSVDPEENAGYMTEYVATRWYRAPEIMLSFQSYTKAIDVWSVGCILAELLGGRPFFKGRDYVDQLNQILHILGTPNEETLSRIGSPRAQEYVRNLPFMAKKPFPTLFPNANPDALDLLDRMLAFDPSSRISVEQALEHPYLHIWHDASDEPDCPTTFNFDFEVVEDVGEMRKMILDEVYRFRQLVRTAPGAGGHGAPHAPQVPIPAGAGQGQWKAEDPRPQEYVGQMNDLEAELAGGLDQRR
Pmk1, sequence (G4N0Z0 whole entry, looked up): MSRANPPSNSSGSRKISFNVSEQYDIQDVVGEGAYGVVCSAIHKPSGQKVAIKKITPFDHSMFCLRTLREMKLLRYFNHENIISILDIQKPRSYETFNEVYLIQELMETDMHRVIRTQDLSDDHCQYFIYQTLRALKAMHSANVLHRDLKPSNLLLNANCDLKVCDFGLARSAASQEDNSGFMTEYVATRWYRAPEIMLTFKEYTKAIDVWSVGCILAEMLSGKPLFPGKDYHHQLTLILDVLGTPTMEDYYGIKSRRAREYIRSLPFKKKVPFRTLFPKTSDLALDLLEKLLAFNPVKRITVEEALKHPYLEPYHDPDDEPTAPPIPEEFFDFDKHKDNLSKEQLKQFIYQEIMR

adenylyl imidodiphosphate [AMP-PNP]: the “binding to Mps1” value on Mps1 [1] is “does not interact with Mps1; also recorded: no binding was detected”. In addition, the Kd was below 500 µM on Mps1 [1] (read-out: KD), 2.54 mM on Src and 7.9 mM at Itk.

As for `CNC(=O)[C@H](Cc1c[nH]c2ccccc12)NC(=O)c1ccc2cncc(-c3cc(OC(F)(F)F)ccc3OC)c2n1` [A378-0], the “germination and appressorium formation of conidia” value with M. oryzae conidia [2] is “could not inhibit the germination and appressorium formation”. This compound yielded a Kd on Mps1 [1] of 69.2 µM. For the same compound, in the assay on M. oryzae [3], the “concentration at which conidia were completely nonpathogenic” value came to 150 µg/mL and the “concentration from which inhibition of M. oryzae virulence is observed” value was determined as 50 µg/mL. Besides, at Mpk1 [4], the “kinase activity of Mpk1” value is “can inhibit the kinase activity of Mpk1”. Further, the “sensitivity to lysing enzyme (cell wall integrity)” value with M. oryzae [5] is on record as “readily reduced to spheroplasts”. Besides, on Pmk1, the “binding to Pmk1” value is listed as “nonspecific binding”. Moreover, in the assay with M. oryzae [6], the “virulence on barley leaves” value is reported as “exhibits inhibition of M. oryzae virulence on barley leaves”. Also, in the assay with M. oryzae [7], the “conidiation reduced to” value is recorded as “about 40%”. In addition, the “autolysis on the culture dish” value in the assay on M. oryzae [8] was “progressive autolysis was observed”. In addition, the “kinase activity of Mps1” value on Mps1 [9] is listed as “suppressed the kinase activity of Mps1”. Moreover, the “appressorium penetration (penetration peg formation)” value in the assay on M. oryzae conidia [10] is “did not form a penetration peg”. Besides, at Mpk1 [11], the Kd was found to be 70.3 µM.

In the case of `CC(C)OC(=O)C(C(=O)OC(C)C)=C1SCCS1` [Isoprothiolane, diisopropyl 2-(1,3-dithiolan-2-ylidene)malonate], the “concentration that can inhibit appressorium penetration” value with M. oryzae conidia [12] was 20 µg/mL.

Source of the values: article PMC10127588 (mBio, 2023).
